Source: patent US20260285918A1, “PEPTIDE FOR INHIBITING PROTEIN AGGREGATION AND PROTECTING PROTEIN ACTIVITY” (GWANGJU INSTITUTE OF SCIENCE AND TECHNOLOGY, priority 2023, published 2026)

How the values were obtained:
[1] = system: LDH (Lactate dehydrogenase); experiment: LDH activity protection after dehydration-rehydration and freeze-thaw; format: biochemical; conditions: for LDH activity protection rate: motif added at up to 1/10 of the BSA amount
Text: Specifically, as illustrated in FIG. 6(c), considering the charge, hydrophobicity, and hydrophilicity of each amino acid in the CAHS motif 1 124-142 sequence, Y (Tyr), Q (Gln), E (Glu), V (Val), R (Arg), and L (Leu) in the amino acid sequence of CAHS motif 1, represented by SEQ ID NO: 2, were each mutated to alanine at one site.

[2] = system: LDH (Lactate dehydrogenase); experiment: Inhibition of LDH aggregation (absorption at 340 nm, light scattering) after dehydration-rehydration and freeze-thaw
Text: In other words, protein aggregation is the main cause of loss of protein activity. Protein aggregation is induced during the process of freezing and thawing (freeze and thaw) or in a water-free environment (dehydration), which causes loss of protein activity.

[3] = Solubility comparison after dialysis; format: physicochemical; conditions: 100 μM, dialysed at 4° C. for 18 hours in 20 mM potassium phosphate, 150 mM NaCl, pH 7.0
Description: First, CAHS motif 1 124-142 was obtained via peptide synthesis. CAHS motif 1 124-142 and the entire CAHS protein 1-229 were each dialysed at 4° C. for 18 hours in a buffer containing 20 mM potassium phosphate, 150 mM NaCl, pH 7.0, at a concentration of 100 μM, to compare their solubility.

[4] = system: LDH (Lactate dehydrogenase); experiment: LDH activity protection with temperature and time (storage); format: biochemical; conditions: mass ratio 1:50
Description: CAHS motif 1 124-142, a stabilizer provided by the present invention, was mixed with LDH (lactate dehydrogenase), a target protein candidate for activity protection experiments, at a mass ratio of 1:50. The LDH protein activity was tested under various temperature and time conditions to determine the degree of protein activity protection.
Specifically, LDH protein activity was tested at temperatures of −20° C., 20° C., and 37° C., and at time intervals of 0, 1, 2, and 4 weeks.

Substance | LDH activity protection rate [1] | LDH aggregation ([2]; dehydration-rehydration) | solubility [3] | LDH activity protection compared between excipients [1] | LDH aggregation ([2]; freeze-thaw) | LDH activity preservation on storage ([4]; 20° C., 1 to 4 weeks) | LDH activity preservation on storage ([4]; 37° C., 1 to 4 weeks) | LDH activity preservation on storage ([4]; all conditions: −20° C., 20° C., 37° C., 0, 1, 2, 4 weeks) | LDH activity preservation on storage ([4]; −20° C., 1 to 4 weeks)
Bovine Serum Albumin [BSA, reference compound] | 50-60% | barely prevented aggregation |  |  |  |  |  |  | 
CAHS motif 1 124-142: 19-mer peptide, positions 124 to 142 of the CAHS protein, YRKQQEVEADKIRKELEKQ, obtained via peptide synthesis | 70-100% | reduced aggregation by more than half | excellent solubility in water | best protected the activity of the protein | effectively inhibits the aggregation of LDH | well preserved | well preserved | effectively preserve protein activity under all temperature and time conditions | well preserved
